Measurements from patent publication US8183048B2, “Assay for screening/ranking antioxidants based on their effects on membrane sterol lateral organization” (Temple University- Of the Commonwealth System of Higher …, priority 2007, dated 2012).
Values joined by “and” are separate entries in the source; they are usually repeats but may differ in a detail not shown here. Equal entries are not always repeated. “Also recorded” adds a separate entry of the source.

How the values were obtained:
[1] = AAPH-induced DHE oxidation, antioxidant-induced lag phase vs sterol mol % (sterol superlattice assay); type: biochemical
Protocol: Two-component or multi-component models of large unilamellar vesicles (LUVs) containing DHE (dehydroergosterol) are prepared as described above. The sizes of LUVs are in the range of 100-800 nm in diameter. [Please quantify the term “large”]. A prooxidant or a free radical generator is added to a fluorescence cuvette containing LUVs that have been incubated with an antioxidant. In certain embodiments, sterol oxidation was induced by a water-soluble free radical generator, AAPH (2,2′-azobis(2-amidinopropane) dihydrochloride). […] Plotting the lag phase length (τ) (or the initial rate Ri, in the case of lacking lag phase) vs sterol mole fraction in the presence of low dose antioxidant, a biphasic change in (or Ri) at a given Cr (e.g., 20.0, 22.2, 25.0, 33.3, 40.0 and 50.0 mol % sterol) is observed (see FIGS. 4, 8, and 9). This experiment will be repeated at different antioxidant doses. A threshold antioxidant concentration (Cth) is the highest antioxidant concentration at which the biphasic change in τ with sterol mol % may still be detected. The τ, Ri, and Cth values will give information about the antioxidant activity or potency and side effects. The τ and Ri values will give information about the antioxidant activity or potency. […] The ratio of the Ri value in the presence of antioxidants to that in the absence of antioxidants (Ri/Rio) also reflects the potency of the antioxidant. […] The Cth value indicates the potential toxicity of the antioxidant. The lower the Cth value is, the higher the potential damage to cell membranes becomes. The Cth values will be determined based on the capability of the antioxidant to abolish the biphasic change of either τ or Ri with membrane sterol mole fraction. All of the antioxidants, either producing τ or Ri, can be compared and ranked based on the Cth values.
Dehydroergosterol (DHE; Sigma, St. Louis, Mo.) was first purified by HPLC, and then dissolved in CHCl3 to make a stock solution. The concentration of DHE stock solution was calculated by absorbance in dioxane at 326 nm, using an extinction coefficient equal to 10,600 M^−1 cm^−1. DMPC was purchased from Avanti Polar Lipids (Alabaster, Ala.). The concentration of DMPC in stock solution and in LUVs was determined by the method of Bartlett (61). The prooxidant AAPH ((2,2′-azobis(2-amidinopropane) dihydrochloride) was obtained from Aldrich (Milwaukee, Wis.). Ascorbic acid and ascorbyl palmitate were purchased from Sigma.
Calculated amounts of DMPC and DHE were pipetted into tubes and dried under N2 until there was no visible solvent; lipids were then dried overnight under vacuum. Next, lipids were reconstituted at 37° C. with 5.0 mL of 50 mM Tris-HCl buffer at pH 7.0 (containing 0.02% NaN3 and 0.1 mM EDTA), then flushed with N2, and vortexed for 2 min at 37° C. to form multilamellar vesicles (MLVs). The MLVs were cooled to 4° C. for 30 min and then incubated at 37° C. for 30 min. This cooling/heating cycle was repeated three times to ensure an even distribution of lipids within each monolayer of the vesicles. After being exposed to three cycles of heat/cold to allow for thorough mixing, vesicles were left for 4 days at room temperature to come to thermal equilibrium. LUVs were then prepared from MLVs by extrusion (Lipex Biomembranes Inc., Vancouver, BC, Canada). The MLVs were extruded at 37° C. 10 times through two stacked 200 nm Nucleopore polycarbonate filters (Costar) under nitrogen gas pressure to form homogeneous LUVs. To avoid auto-oxidation of sterol, the LUV samples were flushed with argon, sealed, and stored in a dessicator chamber under vacuum at room temperature for seven days prior to sterol oxidation measurements (50). During this time, phosphorus concentration was measured again to determine new phospholipid concentration after loss by extrusion (53).
A typical LUV sample set spanned a predicted critical sterol mole fraction (Cr) for maximal superlattice formation. […]

[2] = AAPH-induced sterol oxidation, initial rate (Ri) vs sterol mol %; type: biochemical
Description: The main purpose of this assay is to determine the Cth value for the antioxidant ALA, which is both water and lipid soluble. […] Ri came from monitoring DHE fluorescence intensity after addition of AAPH. […] In this case (the right panel in the flow chart—FIG. 9), the initial rate of sterol oxidation (Ri), instead of the lag phase, is used as the parameter to reflect the potency of an antioxidant activity. […] The membrane system is: 1-palmitoyl-2-oleoyl-L-α-phosphatidylcholine (POPC)/porcine brain sphingomyelins (pSPMs)/DHE LUVs. This biphasic change is expected from the sterol superlattice theory and is consistent with our previous finding (43). […] In this case, the Cth value is determined to be >>5 mM, if there is any. Vertical bars are the standard deviations from three independently prepared samples. The experiment was carried out at 37-42° C.
The term “Ri” as used herein means the initial rate of sterol oxidation in sec^−1. Ri can be calculated as follows: Ri equals [(Normalized fluorescence intensity of DHE at time t) minus (normalized fluorescence intensity of DHE at time 0)] divided by (t−0). Initial rate of sterol oxidation is calculated from the slope of DHE fluorescence intensity decrease vs time. […] Each sample set spanning a critical mole fraction must be analyzed separately in order to get an accurate picture for that particular set of vesicles. […] One reason for these slight variations is due to the high sensitivity of fluorescence signals. Fluorescence intensity is a relative value, depending on the amount of fluorophore in the cuvette, sample mixing, temperature fluctuations, and quenching due to impurities in the sample. For this reason, each complete set is analyzed separately, but all sets are normalized so that they can be compared to each other. Each sample set is analyzed by examining the first five to ten minutes of fluorescence decay in a sequential manner. […] Within a sample set, the deviation from linearity can be determined, and the number of minutes that will be used to calculate the initial rate can be defined. […]

[3] = sample set 23.8-26.2 mol %, Cr 25.0 mol %, FIG. 5
[4] = sample set 38.8-41.2 mol %, Cr 40.0 mol %, FIG. 6

Structure (SMILES) | Cth (threshold antioxidant concentration for sterol superlattice disruption) ([1]; DMPC/DHE LUVs, 37° C., all three sample sets (Cr 20.0, 25.0, 40.0 mol %)) | lag phase length relative to ascorbic acid ([1]; same apparent dose, FIGS. 2 and 3) | Cth (biphasic change in lag phase with sterol content abolished) [1, 3] | Cth (biphasic change in lag phase with sterol content abolished) [1, 4] | concentration at which the biphasic profile of lag phase is obliterated ([1]; sample set spanning Cr 20.0 mol % DHE, FIG. 4) | concentration at which the biphasic profile of lag phase is obliterated ([1]; sample set spanning Cr 25.0 mol % DHE, FIG. 5) | concentration at which the biphasic profile of lag phase is obliterated ([1]; sample set spanning Cr 40.0 mol % DHE, FIG. 6) | Cth (threshold antioxidant concentration above which biphasic profile of lag phase at Cr is no longer observable) ([1]; sample set 18.8-21.2 mol % DHE in DMPC, Cr 20.0 mol %, FIG. 4) | lag phase in AAPH-induced sterol oxidation ([2]; AAPH-induced DHE fluorescence decay) | effect on initial rate of sterol oxidation (Ri) ([2]; AAPH-induced DHE oxidation, increasing ALA doses) | Cth (from biphasic change of Ri with sterol content) ([2]; POPC/pSPMs/DHE LUVs, Cr 20.0 mol %, 37-42° C., FIG. 8)
CCCCCCCCCCCCCCCC(=O)OC[C@H](O)[C@H]1OC(=O)C(O)=C1O [ascorbyl palmitate] | 13 to 15 µM and 13.1 to 15.0 µM | much more potent; also recorded: about three | 11.3 to 15.0 µM | 13.1 to 15.0 µM | ≥ 15.0 µM | ≥ 15.0 µM | ≥ 15.0 µM |  |  |  | 
O=C1O[C@H]([C@@H](O)CO)C(O)=C1O [ascorbic acid] |  |  | ≥ 30 µM | ≥ 120 µM |  |  |  | ≥ 30 µM |  |  | 
O=C(O)CCCCC1CCSS1 (stereo not drawn) [ALA, alpha lipoic acid] |  |  |  |  |  |  |  |  | does not generate a lag phase | Ri decreases with increasing ALA doses; also recorded: dose-dependent decrease | > 5 mM
